Measured values published in patent publication US20230192683A1, “FUSED RING COMPOUNDS, PREPARATION METHOD THEREFOR, PHARMACEUTICAL COMPOSITIONS AND USE THEREOF” (priority 2020, published 2023).
Marks after values point to notes of the source that are not given here.

Assays:
[1] = biological target: T1, human SSTR4 (Homo sapiens, UniProt P31391); test: cell-based human SSTR4 cAMP assay (agonist activity); conditions: SSTR4, EC50 (nM), Flp-In-CHO-SSTR4 stable pool, Forskolin-stimulated cAMP
T1 construct: expressed in transfected cells
T1 sequence (P31391 whole entry): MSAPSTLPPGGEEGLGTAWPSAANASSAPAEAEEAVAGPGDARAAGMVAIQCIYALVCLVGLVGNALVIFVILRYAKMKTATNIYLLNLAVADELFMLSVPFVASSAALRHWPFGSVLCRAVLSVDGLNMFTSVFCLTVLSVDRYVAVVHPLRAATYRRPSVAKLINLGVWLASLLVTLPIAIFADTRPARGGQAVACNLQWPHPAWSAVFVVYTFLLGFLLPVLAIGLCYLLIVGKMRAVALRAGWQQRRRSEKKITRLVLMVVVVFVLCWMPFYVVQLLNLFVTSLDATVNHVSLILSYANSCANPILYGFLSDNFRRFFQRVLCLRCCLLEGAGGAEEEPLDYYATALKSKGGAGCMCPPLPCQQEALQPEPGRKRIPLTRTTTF
Method: Purpose of test: A cell-based human SSTR4 cAMP assay was used to determine the agonistic effect of the test compound on an SSTR 4 receptor.
Cell culture and reagent preparation: cell line: Flp-In-CHO-SSTR4 stable pool; complete medium: Ham’s F-12 K + 10% FBS + 1 × penicillin-streptomycin (PS) + 600 µg/ml hygromycin B; cell seeding medium: Ham’s F-12K + 10% FBS; assay buffer: 1 × HBSS + 20 mM HEPES + 0.1%BSA + 500 uM IBMX.
The Flp-In-CHO-SSTR 4 stable pool cell line was cultured in a complete medium at 37° C., 5% CO2 until a confluency of 70% to 90%.
After TrypLE digestion, the cells were resuspended in the seeding medium and seeded in a 384-well cell culture plate (384 PE culture plate), with 7,000 cells per well, and were cultured overnight at 37° C., 5% CO2.
The cell culture plate was taken out, inverted at 200 g at room temperature for 5 s to remove the medium, then quickly filled with 15 µl of an experimental buffer to each experimental well, and centrifuged at 200 g at room temperature for 5 s.
2.5 µl of the 8x compound working solution diluted in step 3 was added to corresponding test wells, which were centrifuged at 200 g for 5 s at room temperature, and incubated at 37° C. for 10 min.
A 4 uM Forskolin working solution (8x) was prepared.
The cell plate was taken out and equilibrated to room temperature, then filled with 2.5 µl of the 8x Forskolin working solution prepared in step 6 to corresponding test wells, followed by RT at 200 g for 5 s, and left to stand at 37° C. for 30 min.
A Eu-cAMP tracer and Uliaght-anti-cAMP were freeze-thawed, the Eu-cAMP tracer was diluted 50-fold with a detection buffer, and the Uliaght-anti-cAMP was dilutd 150-fold.
10 µl of the Eu-cAMP tracer was added to all experimental wells, then 10 µl of the detection buffer was added to NC wells, and 10 µl of the Uliaght-anti-cAMP was added to the remaining experimental wells.
The reaction plate was centrifuged at 200 g for 30 s at room temperature, and after standing at 25° C. for 1 h, data was collected using Envision.
Compound EC50 was calculated using a GraphPad nonlinear fitting formula: […]
X: Compound concentration log value; Y: HTRF ratio

[2] = pharmacokinetic evaluation in rats after oral and intravenous administration; assay type: in vivo; conditions: Sprague-Dawley, rat, plasma, male SD rats, oral 10.0 mg/kg, intravenous 1.0 mg/kg, route and unit inferred
Method: Using rats as test animals, an LC/MS/MS method was used to determine the drug concentrations in plasma at different times after oral and intravenous administration of Compound 1a and Compound 14 in the rats. The pharmacokinetic behavior of the compounds of the present invention in rats was studied, and pharmacokinetic characteristics thereof were evaluated.
For each compound, 6 healthy adult SD (Sprague-Dawley) rats, male, were divided into oral and intravenous administration groups, 3 rats in each group, purchased from Shanghai SIPPR/BK Laboratory Animal Co., Ltd., animal production license number: SCXK (Shanghai) 2008-0016.
A specific amount of the drug was weighed and dissolved in 5% dimethylacetamide (DMA) + 5% polyethylene glycol-15 hydroxystearate (solutol) + 90% saline solution to prepare a 0.2 mg/mL solution.
The SD rats were fasted overnight and were administered orally and intravenously. The oral dose was 10.0 mg/kg, and the intravenous dose was 1.0 mg/kg.
Compound 1a and Compound 14 were administered orally and intravenously to the rats. At 0.083, 0.25, 0.5, 1, 2, 4, 8, and 24 hours after administration, 0.2 mL of blood was collected from the submandibular vein or other suitable blood vessels, placed in K2-EDTA tubes, and then stored on ice. Within one hour, the plasma was separated by centrifugation at 6,800 g for 6 minutes at 2-8° C., and stored at -80° C. for LC/MS/MS analysis. The rats were fed 4 hours after administration.

[3] = biological target: T1, human SSTR4; test: radioligand binding assay, [125I]Somatostatin-14, CHO-K1 membranes
Method: Cell membranes were then filtered and washed, and protein-bound radioactivity was measured with a suitable instrument. The Ki values of corresponding targets were calculated using a Cheng-Prusoff formula.

[4] = test system: rat CFA pain model; test: single-dose pharmacodynamic study in rat CFA pain model (Von Frey PWT); assay type: in vivo
Method: Each male SD rat (7-8 weeks old) was injected with 50 microliters of CFA in the center of the left hind paw. A PWT basal value test was conducted 24 hours after modeling, and the drugs were administered after randomization.
There were 8 animals in each group, and the animals were weighed and administered according to Table 4.
For all groups of animals, paw withdrawal thresholds (PWTs) of the animals were tested using Von Frey after 1 h and 3 h of single administration.

[5] = metabolic stability in male rat liver microsomes; conditions: rat liver microsomes, pH 7.4
Method: Metabolic degradation of a test compound was analyzed using pooled human liver microsomes and male rat liver microsomes, respectively, at 37° C.
After pre-incubation at 37° C. for 5 min, NADPH (5 mM, 60 µL) was added to initiate a reaction. A fixed volume of the reaction mixture (30 µL) was sampled into the solution at fixed time points (0, 5, 15, 30, 60 min) to quench the reaction. After centrifugation (4000 rpm, 15 min), the supernatant (100 µL) was mixed with distilled water (100 µL) and then subjected to LC-MS/MS analysis to test the amount of the compound. A half-life was calculated using a first-order reaction kinetic equation (Ct = C0 × e^-ket, T½ = Ln2/ke).

EC50 [1]: 0.057 nM
half-life [2]: 2.58 ± 0.5 h
Vd ([2]; read-out: Apparent volume of distribution): 7.09 ± 1.08 L/kg
clearance ([2]; read-out: Clearance rate): 48.7 ± 5.01 mL/min/kg
Ki [3]: 0.51 nM
SSTR4 /SSTR 1 ([3]; ratio of binding Ki values, selectivity): 879.5
half-life at 1 µM [5]: > 3.11 h
Structure (SMILES): CSc1cccc2c(C(C)(C)NC(=O)[C@H]3[C@@H]4CNC[C@@H]43)nn(C)c12 [Compound 14, (1R,5S,6R)-N-(2-(1-Methyl-7-(Methylthio)-1H-Indazol-3-yl)Prop-2-yl)-3-Azabicyclo[3.1.0]Hexane-6-Carboxamide]
Mechanical allodynia test (PWT (g), mean) Baseline ([4]; 10 mg/kg I.P. group, baseline 24 h after CFA, before administration): 3.566 g
Mechanical allodynia test (PWT (g), mean) 1 hour ([4]; 10 mg/kg I.P., 1 hour after single administration): 4.628 g
efficacy compared with Control Compound A (in words) ([4]; 10 mg/kg I.P., 3 hours after administration): significantly better than that of Control Compound A
Mechanical allodynia test (PWT (g), mean) 3 hours ([4]; 10 mg/kg I.P., 3 hours after single administration): 8.886 **** # g
inhibition of CFA-induced mechanical allodynia (in words) ([4]; 10 mg/kg I.P., single administration, FIG. 1): inhibited CFA-induced mechanical allodynia
